The text below walks through data of patent US20050113450A1, “Antibacterial agents” (priority 2002, published 2005).

≈ marks a conversion by molar mass, not a printed value.

For this assay, the system named is SA 9218. In words: MIC by standard agar dilution method. As to conditions: Mueller Hinton agar, 10^4 to 10^5 cells per spot, incubated overnight at 35° C., lowest concentration that inhibits visible growth. Type of assay: cell-based. An excerpt: The antibacterial agents of this invention have useful activity against a variety of organisms. The in vitro activity of compounds of this invention can be assessed by standard testing procedures such as the determination of minimum inhibitory concentration (MIC) by agar dilution as described in “Approved Standard. Methods for Dilution Antimicrobial Susceptibility Tests for Bacteria That Grow Aerobically”, 3rd. ed., published 1993 by the National Committee for Clinical Laboratory Standards, Villanova, Pa., USA. The in vitro MICs of test compounds were determined by a standard agar dilution method. A stock drug solution of each analog was prepared in the preferred solvent, usually DMSO:H2O (1:3). Serial 2-fold dilutions of each sample are made using 1.0 ml aliquots of sterile distilled water. To each 1.0 ml aliquot of drug was added 9 ml of molten Mueller Hinton agar medium. The drug-supplemented agar was mixed, poured into 15×100 mm petri dishes, and allowed to solidify and dry prior to inoculation. Vials of each of the test organisms are maintained frozen in the vapor phase of a liquid nitrogen freezer. Test cultures are grown overnight at 35° C. on the medium appropriate for the organism. Colonies are harvested with a sterile swab, and cell suspensions are prepared in Trypticase Soy broth (TSB) to equal the turbidity of a 0.5 McFarland standard. A 1:20 dilution of each suspension was made in TSB. The plates containing the drug supplemented agar are inoculated with a 0.001 ml drop of the cell suspension using a Steers replicator, yielding approximately 10^4 to 10^5 cells per spot. The plates are incubated overnight at 35° C. Following incubation the Minimum Inhibitory Concentration (MIC μg/ml), the lowest concentration of drug that inhibits visible growth of the organism, was read and recorded.
For orientation: Agar dilution tests growth on a series of plates holding different concentrations.

`N#Cc1ccc(NC(=O)c2cccc3ccccc23)c(C(=O)O)c1`: it took 16 µg/mL (≈ 50.6 µM) to inhibit growth (MIC).
Still for that read-out and setting: next, `O=C(Nc1ccc(Br)cc1C(=O)O)c1cccc(O)c1`: 32 µg/mL (≈ 95.2 µM).
Same read-out and setting: in the case of `O=C(Nc1cccc(C(=O)Nc2ccc(Br)cc2C(=O)O)c1)c1ccccc1` [PHA-708976] it was 32 µg/mL (≈ 72.8 µM); in that of `COCC(=O)Nc1cccc(C(=O)Nc2ccc(Br)cc2C(=O)O)c1` [PHA-708986], 64 µg/mL (≈ 157 µM); in that of `CCC1CCCCN1S(=O)(=O)c1ccc(C(=O)Nc2ccc(C#N)cc2C(=O)O)cc1` (stereo not shown) [PHA-571189], 64 µg/mL (≈ 145 µM).
On the same count and under the same terms, next, `CN(c1ccc(Cl)cc1)S(=O)(=O)c1ccc(C(=O)Nc2ccc([N+](=O)[O-])cc2C(=O)O)cc1` [PNU-293032]: 16 µg/mL (≈ 32.7 µM).
`CN(c1ccc(Cl)cc1)S(=O)(=O)c1cccc(C(=O)Nc2ccc(Cl)cc2C(=O)O)c1` [PHA-615551]: the MIC (usually the lowest concentration that inhibits growth of the organism) was 1 µg/mL (≈ 2.09 µM).
Same read-out and setting: next, `CCN(CC)c1ccc(NS(=O)(=O)c2cc(C(=O)Nc3ccc(Br)cc3C(=O)O)ccc2Br)cc1`: 64 µg/mL (≈ 102 µM); `O=C(Nc1ccc(Br)cc1C(=O)O)c1ccc(OCc2cccc(C(F)(F)F)c2)cc1`: 32 µg/mL (≈ 64.7 µM).
Same read-out and setting: in the case of `CCOc1cccc(C(=O)Nc2ccc(Br)cc2C(=O)O)c1` it was 64 µg/mL (≈ 176 µM); in that of `CSc1ccc(Cl)c(C(=O)Nc2ccc(Br)cc2C(=O)O)c1`, over 128 µg/mL; in that of `CCCCN(CCO)S(=O)(=O)c1ccc(C(=O)Nc2ccc(C#N)cc2C(=O)O)cc1` [PHA-656867], 64 µg/mL (≈ 144 µM).
The same measure, in the same setting: in the case of `CCCCCC(=O)c1ccc(NC(=O)c2ccc(S(=O)(=O)N3CCc4ccc(Cl)cc43)cc2)c(C(=O)O)c1` it was 8 µg/mL (≈ 14.4 µM).
As for `N#Cc1ccc(NC(=O)c2ccccc2)c(C(=O)O)c1` [PHA-521535], the “SA 9218 MIC” value is over 128 µg/mL.
Turning to `CN(c1ccc(Cl)cc1)S(=O)(=O)c1cc(Br)cc(C(=O)Nc2ccc(C#N)cc2C(=O)O)c1` [PHA-630966], the MIC was 0.25 µg/mL (≈ 0.456 µM).
On to `CCCCCOc1ccc(C(=O)Nc2ccc(Br)cc2C(=O)O)cc1`, for which the MIC is 16 µg/mL (≈ 39.4 µM).
Same read-out and setting: next, `Cc1cc(C)c(C(=O)Nc2cccc(C(=O)Nc3ccc(Br)cc3C(=O)O)c2)c(C)c1` [PHA-708981]: 16 µg/mL (≈ 33.2 µM); `CN(c1ccc(Cl)cc1)S(=O)(=O)c1cc(C(=O)Nc2ccc(Br)cc2C(=O)O)ccc1N1CCOCC1` [PNU-293795]: 32 µg/mL (≈ 52.6 µM).
The same measure, in the same setting: in the case of `O=C(Nc1ccc(Cl)cc1C(=O)O)c1cccc(C(NCc2cccc(Cl)c2)c2ccco2)c1` (stereo not shown) it was 8 µg/mL (≈ 16.1 µM); in that of `O=C(Nc1ccc(Br)cc1C(=O)O)c1cccc(S(=O)(=O)N2CCc3ccccc32)c1` [PHA-520938], 1 µg/mL (≈ 1.99 µM).
In turn, `O=C(CSc1ccccc1)Nc1cccc(C(=O)Nc2ccc(Br)cc2C(=O)O)c1` [PHA-708985] yielded an MIC of 8 µg/mL (≈ 16.5 µM).
Still for that read-out and setting: in the case of `O=C(Nc1ccc(Br)cc1C(=O)O)c1cccc(S(=O)(=O)n2ccc3cccnc32)c1` [PHA-630331] it was 2 µg/mL (≈ 4 µM); in that of `N#Cc1ccc(NC(=O)c2cccc3c2C(=O)c2ccccc2-3)c(C(=O)O)c1`, over 128 µg/mL; in that of `CCOc1ccc(C(=O)Nc2ccc(Br)cc2C(=O)O)cc1OCC`, over 128 µg/mL.
Still for that read-out and setting: next, `Cc1ccc(S(=O)(=O)Nc2cccc(C(=O)Nc3ccc(Br)cc3C(=O)O)c2)cc1`: 0.5 µg/mL (≈ 1.02 µM); `O=C(Nc1ccc(Br)cc1C(=O)O)c1cc(S(=O)(=O)Nc2ccc(Cl)cc2)ccc1Br`: 4 µg/mL (≈ 6.8 µM).
In turn, `O=C(Nc1ccc(Br)cc1C(=O)O)c1cccc(S(=O)(=O)N2CCOCC2)c1` [PHA-571396] had an MIC of 4 µg/mL (≈ 8.52 µM).
On the same count and under the same terms, next, `CN1C(=O)c2ccc(C(=O)Nc3ccc(Br)cc3C(=O)O)cc2C1=O`: 128 µg/mL (≈ 317 µM).
Same read-out and setting: in the case of `O=C(Nc1ccc(Br)cc1C(=O)O)c1ccc(OCCc2ccccn2)cc1` it was 128 µg/mL (≈ 290 µM).
Still for that read-out and setting: in the case of `CCN(CC)C(=O)C1CCCN(S(=O)(=O)c2ccc(C(=O)Nc3ccc(C#N)cc3C(=O)O)cc2)C1` (stereo not shown) [PHA-571202] it was 128 µg/mL (≈ 250 µM); in that of `COc1ccc(CCOc2ccc(C(=O)Nc3ccc(Br)cc3C(=O)O)cc2)cc1`, over 128 µg/mL; in that of `COc1cccc(C(=O)Nc2ccc(Br)cc2C(=O)O)c1` [PHA-504639], 4 µg/mL (≈ 11.4 µM).
Regarding `O=C(Nc1ccc(Br)cc1C(=O)O)c1ccc(OCc2cccc(F)c2)cc1`, inhibition of growth (MIC) required 32 µg/mL (≈ 72 µM).
The same measure, in the same setting: next, `O=C(Nc1ccc(Br)cc1C(=O)O)c1cccc(Br)c1`: 8 µg/mL (≈ 20 µM).
On the same count and under the same terms, next, `C=Cc1ccc(C(=O)Nc2ccc(C#N)cc2C(=O)O)cc1`: 8 µg/mL (≈ 27.4 µM); `O=C(Nc1ccc(-c2cnccn2)cc1C(=O)O)c1cccc(S(=O)(=O)N2CCc3cc(Cl)ccc32)c1` [PHA-556661]: 8 µg/mL (≈ 15 µM).
On to `CN(C)c1ccc(CNS(=O)(=O)c2ccc(Br)c(C(=O)Nc3ccc(Br)cc3C(=O)O)c2)cc1`, for which the minimal inhibitory concentration (MIC) worked out at 16 µg/mL (≈ 26.2 µM).
Still for that read-out and setting: next, `CO/N=C/c1ccc(NC(=O)c2cccc(S(=O)(=O)N3CCOCC3)c2)c(C(=O)O)c1` [PHA-679759]: over 128 µg/mL.
Still for that read-out and setting: in the case of `COCC1CCCN1S(=O)(=O)c1ccc(C(=O)Nc2ccc(C#N)cc2C(=O)O)cc1` (stereo not shown) [PHA-571257] it was 64 µg/mL (≈ 144 µM); in that of `N#Cc1ccc(NC(=O)c2cccc(SC3CCCC3)c2)c(C(=O)O)c1` [PHA-546926], 0.5 µg/mL (≈ 1.36 µM).
The same measure, in the same setting: in the case of `N#Cc1cccc(NC(=O)Nc2cccc(C(=O)Nc3ccc(Br)cc3C(=O)O)c2)c1` [PHA-708990] it was 8 µg/mL (≈ 16.7 µM).
With `CC(=O)NCc1ccc(C(=O)Nc2ccc(C#N)cc2C(=O)O)cc1S(=O)(=O)N1CCc2ccccc21` [PHA-740499], the MIC stood at 128 µg/mL (≈ 247 µM).
On the same count and under the same terms, next, `N#Cc1ccc(NC(=O)c2cccc(S(=O)(=O)C3CCCC3)c2)c(C(=O)O)c1` [PHA-630426]: over 128 µg/mL; `CCCC(=O)C(CCC)Oc1cccc(C(=O)Nc2ccc(Br)cc2C(=O)O)c1` (stereo not shown): 2 µg/mL (≈ 4.33 µM); `Cn1cccc1-c1ccc(NC(=O)c2cccc(S(=O)(=O)N3CCc4cc(Cl)ccc43)c2)c(C(=O)O)c1` [PHA-556658]: 8 µg/mL (≈ 14.9 µM).
Still for that read-out and setting: next, `O=C(O)c1cc([N+](=O)[O-])ccc1/C=C/c1cccc(S(=O)(=O)N2CCc3cc(Cl)ccc32)c1` [PHA-568196]: 1 µg/mL (≈ 2.06 µM).
Same read-out and setting: next, `N#Cc1ccc(NC(=O)c2cccc(S(=O)(=O)N3CCN(c4cccc(C(F)(F)F)c4)CC3)c2)c(C(=O)O)c1` [PHA-571267]: 32 µg/mL (≈ 57.3 µM); `COc1ccc(C(=O)Nc2ccc(Br)cc2C(=O)O)cc1[N+](=O)[O-]`: 32 µg/mL (≈ 81 µM); `CC(C)Oc1cccc(C(=O)Nc2ccc(Br)cc2C(=O)O)c1`: 2 µg/mL (≈ 5.29 µM).
On to `N#Cc1ccc(NC(=O)c2ccc(N=[N+]=[N-])c(I)c2)c(C(=O)O)c1` [PHA-748361], for which the lowest concentration to inhibit growth (MIC) was 8 µg/mL (≈ 18.5 µM).
The same measure, in the same setting: next, `COCC1CCCN1S(=O)(=O)c1cccc(C(=O)Nc2ccc(C#N)cc2C(=O)O)c1` (stereo not shown): 64 µg/mL (≈ 144 µM).
The same measure, in the same setting: in the case of `O=C(Nc1ccc(Br)cc1C(=O)O)c1ccc(NC(=O)c2ccco2)cc1` [PHA-708979] it was over 128 µg/mL; in that of `N#Cc1ccc(NC(=O)c2ccc3c(c2)OCO3)c(C(=O)O)c1`, 16 µg/mL (≈ 51.6 µM).
Still for that read-out and setting: next, `COc1cc(C(=O)Nc2ccc(Br)cc2C(=O)O)c([N+](=O)[O-])cc1OC`: over 128 µg/mL; `COc1cc(C(=O)c2ccc(C(=O)Nc3ccc(Cl)cc3C(=O)O)cc2)cc(OC)c1OC`: 4 µg/mL (≈ 8.51 µM).
Turning to `CCOCCOCCOc1cccc(C(=O)Nc2ccc(Br)cc2C(=O)O)c1`, the MIC was 32 µg/mL (≈ 70.7 µM).
Still for that read-out and setting: in the case of `O=C(Cc1cccs1)Nc1cccc(C(=O)Nc2ccc(Br)cc2C(=O)O)c1` [PHA-708980] it was 16 µg/mL (≈ 34.8 µM); in that of `C=CCN(C1CCCC1)S(=O)(=O)c1cccc(C(=O)Nc2ccc(C#N)cc2C(=O)O)c1` [PHA-656870], 8 µg/mL (≈ 17.6 µM); in that of `O=C1CCC(COc2cccc(C(=O)Nc3ccc(Br)cc3C(=O)O)c2)N1` (stereo not shown) [PHA-571281], 128 µg/mL (≈ 295 µM).
For the compound `CCOc1ccc(C(=O)Nc2ccc(C#N)cc2C(=O)O)cc1`, the lowest concentration to inhibit growth (MIC) was 32 µg/mL (≈ 103 µM).
On the same count and under the same terms, next, `CCSc1cccc(C(=O)Nc2ccc(Br)cc2C(=O)O)c1` [PHA-501748]: 2 µg/mL (≈ 5.26 µM); `N#Cc1ccc(NC(=O)c2ccc(S(=O)(=O)N3CCN(c4ccc([N+](=O)[O-])cc4)CC3)cc2)c(C(=O)O)c1` [PHA-571199]: 64 µg/mL (≈ 120 µM); `CS(=O)(=O)c1cccc(C(=NO)c2ccc(C(=O)Nc3ccc(Cl)cc3C(=O)O)cc2)c1`: 16 µg/mL (≈ 33.8 µM).
`CC(=O)c1ccc(NC(=O)Nc2cccc(C(=O)Nc3ccc(Br)cc3C(=O)O)c2)cc1` [PHA-713401] gave a minimum inhibitory concentration (MIC) of 32 µg/mL (≈ 64.5 µM).
In turn, `CN(CCC#N)S(=O)(=O)c1ccc(C(=O)Nc2ccc(C#N)cc2C(=O)O)cc1` [PHA-571232] had an MIC of over 128 µg/mL.
In the case of `CC(=O)c1ccc(N2CCN(S(=O)(=O)c3cccc(C(=O)Nc4ccc(C#N)cc4C(=O)O)c3)CC2)cc1` [PHA-571172], 32 µg/mL (≈ 60.1 µM) was the least that counted as inhibitory (MIC).
Still for that read-out and setting: next, `CCOc1ccc(C(=O)Nc2ccc(C#N)cc2C(=O)O)cc1OCC`: 128 µg/mL (≈ 361 µM); `N#Cc1ccc(NC(=O)c2cccc(Nc3ccccc3)c2)c(C(=O)O)c1` [PHA-610938, 2-[(3-Anilinobenzoyl)amino]-5-cyanobenzoic acid]: 1 µg/mL (≈ 2.8 µM).
Turning to `O=C(Nc1ccc(Br)cc1C(=O)O)c1ccc(NC(=S)Nc2ccc([N+](=O)[O-])cc2)cc1` [PHA-713403], the MIC is 64 µg/mL (≈ 124 µM).
On the same count and under the same terms, in the case of `O=C(O)c1cc(Cl)ccc1/C=C/c1cccc(S(=O)(=O)N2CCc3cc(Cl)ccc32)c1` [PHA-707801] it was 4 µg/mL (≈ 8.43 µM).
